This is an account of results in patent US8008299B2, “Urotensin II receptor antagonists” (Janssen Pharmaceutica, N.V., priority 2007, dated 2011).

Experiment [1] deals with T1, rat GPR14 (U-II receptor) (Rattus norvegicus, UniProt P49684).
T1 construct: expressed in transfected cells
T1 sequence (P49684 1-386): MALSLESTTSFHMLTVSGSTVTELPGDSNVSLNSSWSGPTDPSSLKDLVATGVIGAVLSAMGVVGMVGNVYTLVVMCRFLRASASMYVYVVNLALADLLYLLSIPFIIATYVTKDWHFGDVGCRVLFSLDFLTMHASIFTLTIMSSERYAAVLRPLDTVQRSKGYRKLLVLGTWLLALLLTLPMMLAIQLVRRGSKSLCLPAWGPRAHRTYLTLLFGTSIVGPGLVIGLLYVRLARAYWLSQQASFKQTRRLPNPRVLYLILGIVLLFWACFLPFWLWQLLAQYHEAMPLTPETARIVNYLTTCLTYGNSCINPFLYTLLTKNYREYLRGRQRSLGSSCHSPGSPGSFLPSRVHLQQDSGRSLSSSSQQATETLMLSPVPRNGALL
As to the kind of experiment: Rat UII Calcium Mobilization FLIPR Assay. Type of experiment: cell-based. As to conditions: CHO cells transfected with rat GPR14; antagonist activity after 5 min incubation vs agonist (Ac)-CFWK(2-NaI)C-NH2 at 1 nM. Put shortly:
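CHO cells stably expressing rat U-II receptor, seeded 24 h before assay, were loaded with FLIPR calcium dye in HBSS/20 mM HEPES/0.1% BSA/2.5 mM probenecid, pH 7.4, for 1 h at 37° C. Calcium mobilization then read by FLIPR at 23° C.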

Experiment [2] has as its target T2, Human UII (U-II receptor) in 6D9 human rhabdomyosarcoma cells (Homo sapiens, UniProt Q9UKP6).
T2 construct: 6D9: isolated by dilution subcloning of RMS13 cells, ATCC® Number: CRL-2061; host or cells: 6D9 human rhabdomyosarcoma cells (subclone of RMS13)
T2 sequence (Q9UKP6 1-389): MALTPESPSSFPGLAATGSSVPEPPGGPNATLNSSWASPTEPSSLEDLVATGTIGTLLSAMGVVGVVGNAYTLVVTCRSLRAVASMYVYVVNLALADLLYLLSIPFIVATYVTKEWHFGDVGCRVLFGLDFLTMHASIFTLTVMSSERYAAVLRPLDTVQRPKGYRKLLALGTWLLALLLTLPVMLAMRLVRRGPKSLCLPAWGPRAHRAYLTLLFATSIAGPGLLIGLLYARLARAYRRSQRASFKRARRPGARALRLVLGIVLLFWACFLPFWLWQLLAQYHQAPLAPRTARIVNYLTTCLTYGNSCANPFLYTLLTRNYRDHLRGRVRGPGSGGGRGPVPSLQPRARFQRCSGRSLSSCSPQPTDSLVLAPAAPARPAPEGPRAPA
As to the kind of experiment: Human UII Calcium Mobilization Assay. The format is cell-based. To be noted: 6D9 human rhabdomyosarcoma cells, FLIPR TETRA, average; read-out: Human UII Ca+ Mobilization Average IC50.

Experiment [3] concerns the target T3, UT receptors in HSMM (Human Skeletal Muscle Myoblasts) (Homo sapiens, UniProt Q9UKP6).
T3 sequence (Q9UKP6 1-389): T2 sequence (Q9UKP6 1-389)
As to the kind of experiment: Human Radioligand Binding Assay ((^125I)-U-II binding to intact HSMM).

Like-named read-outs stand apart in the source and are kept apart here.

As for `CCN1CCN(c2cccc3c2CN([C@H](CCCN(Cc2ccccc2)C(C)C)c2ccc(OC)c(OC)c2)C3=O)CC1` [Cpd 96, 2-[(1R)-4-(benzyl-isopropyl-amino)-1-(3,4-dimethoxy-phenyl)-butyl]-4-(4-ethyl-piperazin-1-yl)-2,3-dihydro-isoindol-1-one], the IC50 in experiment [1] turned out to be 15 nM; in experiment [2] it was 152 nM. The same compound gave a Ki in experiment [3] of 69 nM.
The like results for `CCN1CCN(c2cccc3c2CN([C@H](CCCOc2ccccc2)c2ccc(OC)c(OC)c2)C3=O)CC1` [Cpd 50, 2-[(1R)-1-(3,4-dimethoxy-phenyl)-4-phenoxy-butyl]-4-(4-ethyl-piperazin-1-yl)-2,3-dihydro-isoindol-1-one] were, in that order, 7 nM, 482 nM and 23 nM.
The like results for `CCc1ccnc(NCCC[C@H](c2ccc(OC)c(OC)c2)N2Cc3c(cccc3N3CCN(CC)CC3)C2=O)n1` [Cpd 20, 2-[(1R)-1-(3,4-dimethoxy-phenyl)-4-(4-ethyl-pyrimidin-2-ylamino)-butyl]-4-(4-ethyl-piperazin-1-yl)-2,3-dihydro-isoindol-1-one] were, in that order, 34 nM, 491 nM and 48 nM.
The like results for `CCN1CCC(C(c2ccc(OC)c(OC)c2)N2Cc3c(cccc3N3CCN(CC)CC3)C2=O)CC1` (stereo not drawn) [Cpd 42, 2-[(3,4-dimethoxy-phenyl)-(1-ethyl-piperidin-4-yl)-methyl]-4-(4-ethyl-piperazin-1-yl)-2,3-dihydro-isoindol-1-one] were, in that order, 3600 nM, greater than 10000 nM and greater than 300 nM.
As for `CCN1CCN(c2cccc3c2CN([C@H](CCCNC(=O)C2CCC2)c2ccc(OC)c(OC)c2)C3=O)CC1` [Cpd 80, cyclobutanecarboxylic acid {(4R)-4-(3,4-dimethoxy-phenyl)-4-[4-(4-ethyl-piperazin-1-yl)-1-oxo-1,3-dihydro-isoindol-2-yl]-butyl}-amide], the figures for the IC50 in experiment [1] and in experiment [2] were 21 nM and 311 nM, respectively. For the same compound, in experiment [3], the Ki stood at 18 nM.
With `CCN(CC)CCC[C@H](c1ccc(OC)c(OC)c1)N1Cc2c(cccc2N2CCN(CC)CC2)C1=O` [Cpd 68, 2-[(1R)-4-diethylamino-1-(3,4-dimethoxy-phenyl)-butyl]-4-(4-ethyl-piperazin-1-yl)-2,3-dihydro-isoindol-1-one], the IC50 in experiment [1] amounted to 178 nM; in experiment [2] it was 2040 nM. This compound also registered a Ki in experiment [3] greater than 300 nM.
The like results for `CCN1CCN(c2cccc3c2CN([C@H](CCCNc2c(N)c(=O)c2=O)c2ccc(OC)c(OC)c2)C3=O)CC1` [Cpd 76, 3-amino-4-{(4R)-4-(3,4-dimethoxy-phenyl)-4-[4-(4-ethyl-piperazin-1-yl)-1-oxo-1,3-dihydro-isoindol-2-yl]-butylamino}-cyclobut-3-ene-1,2-dione] were, in that order, 46 nM, 674 nM and 33 nM.
The like results for `CCN1CCN(c2cccc3c2CN([C@H](CCCN(C)Cc2cccs2)c2ccc(OC)c(OC)c2)C3=O)CC1` [Cpd 95, 2-[(1R)-1-(3,4-dimethoxy-phenyl)-4-(methyl-thiophen-2-ylmethyl-amino)-butyl]-4-(4-ethyl-piperazin-1-yl)-2,3-dihydro-isoindol-1-one] were, in that order, 5 nM, 92 nM and 23 nM.
As to `CCN1CCN(c2cccc3c2CN([C@H](CCCNC(N)=O)c2ccc(OC)c(OC)c2)C3=O)CC1` [Cpd 64, {(4R)-4-(3,4-dimethoxy-phenyl)-4-[4-(4-ethyl-piperazin-1-yl)-1-oxo-1,3-dihydro-isoindol-2-yl]-butyl}-urea], the IC50 in experiment [1] was 143 nM; in experiment [2] it was 3660 nM. This compound also had a Ki in experiment [3] greater than 300 nM.
For `CCN1CCN(c2cccc3c2CN([C@H](CCCN2CCc4ccccc4C2)c2ccc(OC)c(OC)c2)C3=O)CC1` [Cpd 101, 2-[(1R)-4-(3,4-dihydro-1H-isoquinolin-2-yl)-1-(3,4-dimethoxy-phenyl)-butyl]-4-(4-ethyl-piperazin-1-yl)-2,3-dihydro-isoindol-1-one], the IC50 is 5 nM in experiment [1] and 69 nM in experiment [2]. In experiment [3], the inhibitory constant (Ki) came out at 21 nM.
As for `CCN1CCN(c2cccc3c2CN([C@H](CCCNC(=O)c2cncn2C)c2ccc(OC)c(OC)c2)C3=O)CC1` [Cpd 59, 3-methyl-3H-imidazole-4-carboxylic acid {(4R)-4-(3,4-dimethoxy-phenyl)-4-[4-(4-ethyl-piperazin-1-yl)-1-oxo-1,3-dihydro-isoindol-2-yl]-butyl}-amide], the IC50 in experiment [1] came to 82 nM; in experiment [2], 1260 nM. The compound also displayed an inhibition constant (Ki) in experiment [3] greater than 300 nM.
On to `CCN1CCN(c2cccc3c2CN([C@H](CCCOCc2ccccc2F)c2ccc(OC)c(OC)c2)C3=O)CC1` [Cpd 51, 2-[(1R)-1-(3,4-dimethoxy-phenyl)-4-(2-fluoro-benzyloxy)-butyl]-4-(4-ethyl-piperazin-1-yl)-2,3-dihydro-isoindol-1-one], for which the IC50 in experiment [1] was 2550 nM; in experiment [2], greater than 10000 nM. This compound gave a Ki in experiment [3] greater than 300 nM.
On to `CCN1CCN(c2cccc3c2CN([C@H](CCCNc2nccc(Cl)n2)c2ccc(OC)c(OC)c2)C3=O)CC1` [Cpd 11, 2-[(1R)-4-(4-chloro-pyrimidin-2-ylamino)-1-(3,4-dimethoxy-phenyl)-butyl]-4-(4-ethyl-piperazin-1-yl)-2,3-dihydro-isoindol-1-one], for which the IC50 in experiment [1] worked out at 1 nM; in experiment [2], 496 nM. The same compound displayed a Ki in experiment [3] of 62 nM.
The like results for `CCN1CCN(c2cccc3c2CN([C@H](CCCN(C)Cc2ccc(F)cc2)c2ccc(OC)c(OC)c2)C3=O)CC1` [Cpd 99, 2-{(1R)-1-(3,4-dimethoxy-phenyl)-4-[(4-fluoro-benzyl)-methyl-amino]-butyl}-4-(4-ethyl-piperazin-1-yl)-2,3-dihydro-isoindol-1-one] were, in that order, 4 nM, 238 nM and 47 nM.
The like results for `CCN1CCN(c2cccc3c2CN([C@H](CCCOCc2ccccc2Cl)c2ccc(OC)c(OC)c2)C3=O)CC1` [Cpd 47, 2-[(1R)-4-(2-chloro-benzyloxy)-1-(3,4-dimethoxy-phenyl)-butyl]-4-(4-ethyl-piperazin-1-yl)-2,3-dihydro-isoindol-1-one] were, in that order, 1300 nM, 6140 nM and greater than 300 nM.
Regarding `CCN1CCN(c2cccc3c2CN([C@H](CCCNC(=O)C(F)(F)F)c2ccc(OC)c(OC)c2)C3=O)CC1` [Cpd 67, N-{(4R)-4-(3,4-dimethoxy-phenyl)-4-[4-(4-ethyl-piperazin-1-yl)-1-oxo-1,3-dihydro-isoindol-2-yl]-butyl}-2,2,2-trifluoro-acetamide], the IC50 in experiment [1] came out at 50 nM; in experiment [2] it was 865 nM. This compound returned a Ki in experiment [3] of 43 nM.
The like results for `CCN1CCN(c2cccc3c2CN([C@H](CCCNc2ccccn2)c2ccc(OC)c(OC)c2)C3=O)CC1` [Cpd 92, 2-[(1R)-1-(3,4-dimethoxy-phenyl)-4-(pyridin-2-ylamino)-butyl]-4-(4-ethyl-piperazin-1-yl)-2,3-dihydro-isoindol-1-one] were, in that order, 74 nM, 911 nM and 60 nM.
Take `COc1ccc([C@@H](CCCN(C)S(=O)(=O)c2cccs2)N2Cc3c(cccc3N3CCN(C(C)C)CC3)C2=O)cc1OC` [Cpd 8, thiophene-2-sulfonic acid {(4R)-4-(3,4-dimethoxy-phenyl)-4-[4-(4-isopropyl-piperazin-1-yl)-1-oxo-1,3-dihydro-isoindol-2-yl]-butyl}-methyl-amide]: the IC50 is 2 nM in experiment [1] and 177 nM in experiment [2]. Besides, in experiment [3] (read-out: Human UII Average Binding Ki, intact HSMM, 0.150 nM (^125I)-U-II, 3 h, 25° C.), the inhibitory constant (Ki) was determined as 11 nM.
For the compound `CCN1CCN(c2cccc3c2CN([C@H](CCCNc2nc(C)cc(C)n2)c2ccc(OC)c(OC)c2)C3=O)CC1` [Cpd 12, 2-[(1R)-1-(3,4-dimethoxy-phenyl)-4-(4,6-dimethyl-pyrimidin-2-ylamino)-butyl]-4-(4-ethyl-piperazin-1-yl)-2,3-dihydro-isoindol-1-one], the IC50 in experiment [1] came out at 12 nM; in experiment [2], 844 nM. For the same compound, in experiment [3], the affinity corresponds to a Ki of 54 nM.
